Assay results from patent publication US10472401B2, “Peptides and combination of peptides for use in immunotherapy against ovarian cancer and other cancers” (immatics biotechnologies GmbH, priority 2015, dated 2019).
Each block holds one compound with its values, some of them ahead of it.

Experiments:
PLA2G6 = molecular target: T1, PLA2G6 (Homo sapiens, UniProt O60733); conditions: cited from earlier work
T1 construct: host or cells: ovarian cancer cells
T1 sequence (O60733 1-806): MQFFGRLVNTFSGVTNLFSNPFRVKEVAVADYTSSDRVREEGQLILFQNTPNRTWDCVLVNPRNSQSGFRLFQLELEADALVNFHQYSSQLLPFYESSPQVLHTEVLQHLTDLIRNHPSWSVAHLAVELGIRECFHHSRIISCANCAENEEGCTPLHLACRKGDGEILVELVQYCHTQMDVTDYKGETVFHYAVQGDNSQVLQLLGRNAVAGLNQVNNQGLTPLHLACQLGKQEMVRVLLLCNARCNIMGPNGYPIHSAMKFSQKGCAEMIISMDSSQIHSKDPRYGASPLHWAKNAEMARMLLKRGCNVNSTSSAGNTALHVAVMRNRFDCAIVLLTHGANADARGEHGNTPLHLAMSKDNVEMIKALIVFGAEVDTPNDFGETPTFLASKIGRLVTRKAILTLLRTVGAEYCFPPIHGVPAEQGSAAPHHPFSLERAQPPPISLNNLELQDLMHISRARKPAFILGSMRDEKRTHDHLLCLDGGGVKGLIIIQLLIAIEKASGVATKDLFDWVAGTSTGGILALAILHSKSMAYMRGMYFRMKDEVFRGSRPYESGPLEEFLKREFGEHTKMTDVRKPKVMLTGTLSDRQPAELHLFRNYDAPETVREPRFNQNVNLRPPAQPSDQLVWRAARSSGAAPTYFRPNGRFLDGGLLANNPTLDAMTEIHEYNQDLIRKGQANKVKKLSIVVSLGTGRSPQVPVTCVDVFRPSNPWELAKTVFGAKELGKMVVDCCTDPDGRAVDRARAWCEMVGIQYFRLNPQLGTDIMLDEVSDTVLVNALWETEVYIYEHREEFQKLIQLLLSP

ovarian cancer = conditions: clinical studies; cited from earlier work
human tumor cell lines = conditions: cited from earlier work
IMPDH2 = molecular target: T2, IMPDH2 (Homo sapiens, UniProt P12268); conditions: patients with acute myeloid leukemia and chronic myeloid leukemia in blast crisis; cited from earlier work
T2 construct: host or cells: patients with AML and CML in blast crisis

ATR = ATR (Homo sapiens, UniProt Q13535); conditions: pancreatic cancer cells in vitro, pancreatic tumor xenografts in vivo; cited from earlier work
lung tumorigenesis = conditions: TLE1 transgenic mice; cited from earlier work
ALDH5A1 = molecular target: T3, ALDH5A1 (Homo sapiens, UniProt P51649); conditions: cited from earlier work
T3 construct: host or cells: breast ductal carcinoma models
T3 sequence (P51649 48-535): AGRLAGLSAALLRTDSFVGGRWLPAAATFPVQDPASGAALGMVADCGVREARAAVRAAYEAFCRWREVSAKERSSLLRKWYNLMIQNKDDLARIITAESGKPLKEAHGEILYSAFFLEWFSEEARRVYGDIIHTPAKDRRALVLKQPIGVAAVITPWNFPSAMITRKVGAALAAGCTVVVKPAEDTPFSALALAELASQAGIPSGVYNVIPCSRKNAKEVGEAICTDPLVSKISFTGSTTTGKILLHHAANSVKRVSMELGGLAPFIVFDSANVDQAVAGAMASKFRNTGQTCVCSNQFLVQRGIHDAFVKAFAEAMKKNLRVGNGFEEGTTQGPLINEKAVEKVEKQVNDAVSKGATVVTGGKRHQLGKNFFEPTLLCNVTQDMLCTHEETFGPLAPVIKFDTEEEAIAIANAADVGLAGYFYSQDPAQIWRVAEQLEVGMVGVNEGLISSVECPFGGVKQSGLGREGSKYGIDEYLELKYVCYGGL

CD8+ T cells = assay: In vitro immunogenicity: priming of CD8+ T cells with aAPCs loaded with peptide/MHC and anti-CD28, multimer staining; format: cell-based, human; conditions: for Wells positive [%]: HLA-A*02 restricted peptides, percentage of positive wells (among evaluable)
Excerpt: In order to obtain information regarding the immunogenicity of the TUMAPs of the present invention, the inventors performed investigations using an in vitro T-cell priming assay based on repeated stimulations of CD8+ T cells with artificial antigen presenting cells (aAPCs) loaded with peptide/MHC complexes and anti-CD28 antibody.
In order to perform in vitro stimulations by artificial antigen presenting cells loaded with peptide-MHC complex (pMHC) and anti-CD28 antibody, the inventors first isolated CD8+ T cells from fresh HLA-A*02 leukopheresis products via positive selection using CD8 microbeads (Miltenyi Biotec, Bergisch-Gladbach, Germany) of healthy donors obtained from the University clinics Mannheim, Germany, after informed consent.
PBMCs and isolated CD8+ lymphocytes were incubated in T-cell medium (TCM) until use consisting of RPMI-Glutamax (Invitrogen, Karlsruhe, Germany) supplemented with 10% heat inactivated human AB serum (PAN-Biotech, Aidenbach, Germany), 100 U/ml Penicillin/100 μg/ml Streptomycin (Cambrex, Cologne, Germany), 1 mM sodium pyruvate (CC Pro, Oberdorla, Germany), 20 μg/ml Gentamycin (Cambrex). 2.5 ng/ml IL-7 (PromoCell, Heidelberg, Germany) and 10 U/ml IL-2 (Novartis Pharma, Nürnberg, Germany) were also added to the TCM at this step.
Generation of pMHC/anti-CD28 coated beads, T-cell stimulations and readout was performed in a highly defined in vitro system using four different pMHC molecules per stimulation condition and 8 different pMHC molecules per readout condition.
The purified co-stimulatory mouse IgG2a anti human CD28 Ab 9.3 (Jung et al., 1987) was chemically biotinylated using Sulfo-N-hydroxysuccinimidobiotin as recommended by the manufacturer (Perbio, Bonn, Germany). Beads used were 5.6 μm diameter streptavidin coated polystyrene particles (Bangs Laboratories, Illinois, USA).
pMHC used for positive and negative control stimulations were A*0201/MLA-001 (peptide […] (SEQ ID NO. 664) from modified Melan-A/MART-1) and A*0201/DDX5-001 ([…] from DDX5, SEQ ID NO. 665), respectively.
800.000 beads/200 μl were coated in 96-well plates in the presence of 4×12.5 ng different biotin-pMHC, washed and 600 ng biotin anti-CD28 were added subsequently in a volume of 200 μl. Stimulations were initiated in 96-well plates by co-incubating […] CD8+ T cells with 2×10^5 washed coated beads in 200 μl TCM supplemented with 5 ng/ml IL-12 (PromoCell) for 3 days at 37° C. Half of the medium was then exchanged by fresh TCM supplemented with 80 U/ml IL-2 and incubating was continued for 4 days at 37° C. This stimulation cycle was performed for a total of three times. For the pMHC multimer readout using 8 different pMHC molecules per condition, a two-dimensional combinatorial coding approach was used as previously described (Andersen et al., 2012) with minor modifications encompassing coupling to 5 different fluorochromes. Finally, multimeric analyses were performed by staining the cells with Live/dead near IR dye (Invitrogen, Karlsruhe, Germany), CD8-FITC antibody clone SK1 (BD, Heidelberg, Germany) and fluorescent pMHC multimers. For analysis, a BD LSRII SORP cytometer equipped with appropriate lasers and filters was used. Peptide specific cells were calculated as percentage of total CD8+ cells. Evaluation of multimeric analysis was done using the FlowJo software (Tree Star, Oregon, USA). In vitro priming of specific multimer+ CD8+ lymphocytes was detected by comparing to negative control stimulations.
Exemplary flow cytometry results after TUMAP-specific multimer staining for two peptides of the invention are shown in FIG. 3 together with corresponding negative controls.

HLA-A*02:01 = HLA-A*02:01 (Homo sapiens, UniProt P04439, D140Y/D185E/D98H/E176V/E277Q/G131W/G231S/I119V/I121R/I166T/I218V/L300P/L318F/N151K/N90K/P208A/P217A/Q86G/Q94H/R138H/R169H/T345S); assay: MHC binding assay (UV-ligand exchange, ELISA of stabilized MHC complexes); conditions: MHC class I binding score; binding to HLA-A*02:01 ranged by peptide exchange yield (UV-ligand exchange, ELISA)
In short: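 Binding scored as exchange yield, detected via β2m of stabilized complexes in an HRP/TMB ELISA read at 450 nm after streptavidin capture of 100-fold diluted monomers for 1 h at 37 °C. Complexes came from UV irradiation cleaving a photolabile peptide, exchanged for the candidate.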

UBE2V1 = conditions: cited from earlier work

T2 sequence (P12268 2-514 limits assumed): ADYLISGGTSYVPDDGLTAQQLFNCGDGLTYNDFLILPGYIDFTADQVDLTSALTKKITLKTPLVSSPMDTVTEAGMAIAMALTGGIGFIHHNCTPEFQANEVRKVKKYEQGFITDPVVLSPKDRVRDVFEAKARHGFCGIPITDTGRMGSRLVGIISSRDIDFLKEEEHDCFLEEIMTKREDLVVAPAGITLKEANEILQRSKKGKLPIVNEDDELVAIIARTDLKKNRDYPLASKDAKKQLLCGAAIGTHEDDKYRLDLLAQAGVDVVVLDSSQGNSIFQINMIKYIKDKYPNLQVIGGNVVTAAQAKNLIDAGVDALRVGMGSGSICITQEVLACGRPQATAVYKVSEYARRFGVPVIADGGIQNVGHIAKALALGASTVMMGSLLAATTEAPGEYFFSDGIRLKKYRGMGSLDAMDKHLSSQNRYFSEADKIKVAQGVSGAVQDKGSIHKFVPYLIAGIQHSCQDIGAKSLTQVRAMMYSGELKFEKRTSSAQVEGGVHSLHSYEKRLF
Sequence of ATR (Q13535 whole entry): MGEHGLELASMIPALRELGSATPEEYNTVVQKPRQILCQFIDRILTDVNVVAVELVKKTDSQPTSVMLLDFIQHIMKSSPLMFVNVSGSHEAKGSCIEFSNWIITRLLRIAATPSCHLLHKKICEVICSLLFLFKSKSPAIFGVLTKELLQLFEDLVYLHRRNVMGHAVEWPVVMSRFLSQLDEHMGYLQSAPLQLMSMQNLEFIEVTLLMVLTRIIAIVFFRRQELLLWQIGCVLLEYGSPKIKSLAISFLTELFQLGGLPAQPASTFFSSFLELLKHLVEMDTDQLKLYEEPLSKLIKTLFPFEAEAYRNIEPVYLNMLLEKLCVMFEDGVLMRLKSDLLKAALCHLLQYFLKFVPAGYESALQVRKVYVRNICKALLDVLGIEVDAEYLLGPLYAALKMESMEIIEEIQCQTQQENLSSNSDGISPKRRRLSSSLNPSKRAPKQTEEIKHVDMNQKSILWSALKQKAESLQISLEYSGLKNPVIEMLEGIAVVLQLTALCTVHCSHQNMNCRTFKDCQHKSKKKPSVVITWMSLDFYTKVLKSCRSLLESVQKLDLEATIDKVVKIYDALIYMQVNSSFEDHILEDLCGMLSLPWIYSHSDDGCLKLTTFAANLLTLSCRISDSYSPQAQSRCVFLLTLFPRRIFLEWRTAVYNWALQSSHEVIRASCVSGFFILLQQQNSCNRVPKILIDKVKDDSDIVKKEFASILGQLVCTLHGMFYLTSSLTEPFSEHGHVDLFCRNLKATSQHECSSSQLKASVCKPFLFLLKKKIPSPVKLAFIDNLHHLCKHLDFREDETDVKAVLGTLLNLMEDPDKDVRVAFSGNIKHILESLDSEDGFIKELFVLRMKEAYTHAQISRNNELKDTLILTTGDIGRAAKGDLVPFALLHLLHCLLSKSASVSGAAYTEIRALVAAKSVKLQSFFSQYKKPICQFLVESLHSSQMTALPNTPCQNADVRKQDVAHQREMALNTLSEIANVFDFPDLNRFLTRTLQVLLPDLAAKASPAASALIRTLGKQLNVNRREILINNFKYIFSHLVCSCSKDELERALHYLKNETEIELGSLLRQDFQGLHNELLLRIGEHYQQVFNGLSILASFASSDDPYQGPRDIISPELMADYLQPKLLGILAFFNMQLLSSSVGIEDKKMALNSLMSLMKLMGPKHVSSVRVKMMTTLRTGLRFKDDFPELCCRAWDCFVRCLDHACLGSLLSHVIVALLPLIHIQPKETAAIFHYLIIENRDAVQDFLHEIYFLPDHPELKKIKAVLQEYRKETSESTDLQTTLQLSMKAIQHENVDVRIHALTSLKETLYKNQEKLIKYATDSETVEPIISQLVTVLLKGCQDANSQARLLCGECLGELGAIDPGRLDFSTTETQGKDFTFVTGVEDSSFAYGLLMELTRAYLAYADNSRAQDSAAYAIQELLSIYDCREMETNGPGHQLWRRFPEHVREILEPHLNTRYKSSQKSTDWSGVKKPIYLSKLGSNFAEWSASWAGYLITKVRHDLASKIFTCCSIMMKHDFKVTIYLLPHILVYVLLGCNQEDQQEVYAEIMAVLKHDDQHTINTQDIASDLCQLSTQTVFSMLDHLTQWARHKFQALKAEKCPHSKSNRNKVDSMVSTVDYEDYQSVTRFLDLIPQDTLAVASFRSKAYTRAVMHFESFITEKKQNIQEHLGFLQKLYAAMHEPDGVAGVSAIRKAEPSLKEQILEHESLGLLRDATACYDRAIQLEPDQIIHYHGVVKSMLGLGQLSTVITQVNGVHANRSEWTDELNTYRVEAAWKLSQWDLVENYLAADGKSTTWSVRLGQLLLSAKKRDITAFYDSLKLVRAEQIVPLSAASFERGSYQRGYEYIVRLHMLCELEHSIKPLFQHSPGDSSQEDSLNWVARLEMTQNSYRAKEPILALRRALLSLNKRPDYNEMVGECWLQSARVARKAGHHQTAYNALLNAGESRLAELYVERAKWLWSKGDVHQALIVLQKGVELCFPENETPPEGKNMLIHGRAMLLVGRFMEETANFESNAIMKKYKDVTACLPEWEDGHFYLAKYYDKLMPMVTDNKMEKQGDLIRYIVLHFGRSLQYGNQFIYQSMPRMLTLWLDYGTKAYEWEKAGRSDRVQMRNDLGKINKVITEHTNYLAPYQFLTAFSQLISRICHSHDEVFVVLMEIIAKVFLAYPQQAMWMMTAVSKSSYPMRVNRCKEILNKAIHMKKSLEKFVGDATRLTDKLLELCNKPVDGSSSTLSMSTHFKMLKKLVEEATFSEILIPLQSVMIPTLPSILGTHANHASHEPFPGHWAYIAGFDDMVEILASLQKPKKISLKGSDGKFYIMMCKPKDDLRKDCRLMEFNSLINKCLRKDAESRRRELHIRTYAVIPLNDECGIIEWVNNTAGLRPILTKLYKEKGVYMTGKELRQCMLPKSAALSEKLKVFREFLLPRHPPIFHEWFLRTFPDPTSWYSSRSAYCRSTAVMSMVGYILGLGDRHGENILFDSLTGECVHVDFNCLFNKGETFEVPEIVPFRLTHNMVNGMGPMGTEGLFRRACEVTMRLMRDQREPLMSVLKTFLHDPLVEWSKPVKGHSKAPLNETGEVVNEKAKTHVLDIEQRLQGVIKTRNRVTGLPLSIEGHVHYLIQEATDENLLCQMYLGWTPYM
Sequence of ATR (Q8WXE1 whole entry partner): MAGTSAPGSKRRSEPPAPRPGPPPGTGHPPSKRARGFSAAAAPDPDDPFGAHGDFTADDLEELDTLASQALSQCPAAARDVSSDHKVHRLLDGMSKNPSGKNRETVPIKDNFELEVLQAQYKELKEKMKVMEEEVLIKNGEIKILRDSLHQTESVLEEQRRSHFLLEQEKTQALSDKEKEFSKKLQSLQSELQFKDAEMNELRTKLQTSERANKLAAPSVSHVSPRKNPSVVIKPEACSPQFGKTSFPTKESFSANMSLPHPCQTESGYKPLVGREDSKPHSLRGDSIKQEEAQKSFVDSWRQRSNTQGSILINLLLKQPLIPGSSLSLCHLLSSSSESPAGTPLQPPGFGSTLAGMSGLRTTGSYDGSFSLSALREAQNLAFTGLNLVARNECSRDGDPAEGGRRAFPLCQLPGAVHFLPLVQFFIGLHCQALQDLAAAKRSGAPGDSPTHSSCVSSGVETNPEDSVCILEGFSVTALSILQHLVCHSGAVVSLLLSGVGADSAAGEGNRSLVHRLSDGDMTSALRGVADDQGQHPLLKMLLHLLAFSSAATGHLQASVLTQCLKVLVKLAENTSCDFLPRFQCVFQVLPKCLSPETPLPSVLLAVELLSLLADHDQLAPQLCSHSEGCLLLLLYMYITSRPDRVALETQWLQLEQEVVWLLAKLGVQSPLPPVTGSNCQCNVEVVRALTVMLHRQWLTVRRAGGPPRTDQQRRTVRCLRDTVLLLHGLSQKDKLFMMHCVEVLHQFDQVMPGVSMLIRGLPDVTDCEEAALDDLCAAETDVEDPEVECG

Compound: O=C1O/C(=C/Br)CCC1c1cccc2ccccc12 (stereo not shown) [Bromoenol lactone]
- apoptosis and cell cycle of ovarian cancer cells (PLA2G6): increase in apoptosis in ovarian cancer cells as well as inducing cell cycle arrest in S- and G2/M-phases

Compound: bevacizumab
- clinical results in ovarian cancer patients (ovarian cancer): appears to be advantageous

Compound: MORAb-003: anti-folate receptor alpha antibody
- clinical results in ovarian cancer patients (ovarian cancer): only conferred limited clinical benefit to ovarian cancer patients

Compound: CN1CC[C@H](c2c(O)cc(O)c3c(=O)cc(-c4ccccc4Cl)oc23)[C@H](O)C1 [Flavopiridol]
- human tumor cell proliferation (human tumor cell lines): inhibition of human tumor cell proliferation

Compound: oregovomab
- clinical results in ovarian cancer patients (ovarian cancer): promising results in phase II and III studies

Compound: ipilimumab
- clinical results in ovarian cancer patients (ovarian cancer): significant anti-tumor effects in ovarian cancer patients

Compound: NC(=O)c1cccc([C@@H]2O[C@H](CO)[C@@H](O)[C@H]2O)c1 [benzamide riboside]
- clinical response (IMPDH2): good clinical response

Compound: CNCc1ccc(-c2cc(-c3nc(-c4ccc(S(=O)(=O)C(C)C)cc4)cnc3N)on2)cc1 [VE-822]
- radiosensitization and chemosensitization (ATR): radiosensitize and chemosensitize pancreatic cancer cells in vitro and pancreatic tumor xenografts in vivo

Compound: catumaxomab
- clinical results in ovarian cancer patients (ovarian cancer): promising results in phase II and III studies

Compound: CC(/C=C/C(=O)NO)=C\[C@@H](C)C(=O)c1ccc(N(C)C)cc1 [trichostatin A]
- lung tumorigenesis (lung tumorigenesis): significantly inhibited lung tumorigenesis

Compound: NC(=O)c1csc([C@@H]2O[C@H](CO)[C@@H](O)[C@H]2O)n1 [tiazofurin]
- clinical response (IMPDH2): good clinical response

Compound: CCCC(CCC)C(=O)O [valproic acid]
- net proliferation of breast ductal carcinoma models (ALDH5A1): inhibit net proliferation

- Peptide exchange (HLA-A*02:01): ″+++″ (≥50% = +++)
Compound: 150 (RLWEEGEELEL; listed as Homo sapiens) [compound 150]
- Wells positive [%] (CD8+ T cells): ″+″ (<20% = +)

- Peptide exchange (HLA-A*02:01): ″+++″ (≥50% = +++)
Compound: 118 (KLIDNNINV; listed as Homo sapiens) [compound 118]
- Wells positive [%] (CD8+ T cells): ″+″ (<20% = +)

- Peptide exchange (HLA-A*02:01): ″+++″ (≥50% = +++)
Compound: 166 (YLNHLEPPV; listed as Homo sapiens) [compound 166]
- Wells positive [%] (CD8+ T cells): ″++++″ (> = 70% = ++++)

- Peptide exchange (HLA-A*02:01): ″++++″ (≥75% = ++++)
Compound: 56 (KLYEGIPVLL; listed as Homo sapiens) [compound 56]
- Wells positive [%] (CD8+ T cells): ″+″ (<20% = +)

Compound: Cc1ccc(S(=O)(=O)c2ccc([N+](=O)[O-])o2)cc1 [NSC697923]
- proliferation and survival of diffuse large B-cell lymphoma cells (UBE2V1): inhibit proliferation and survival of diffuse large B-cell lymphoma cells

- Peptide exchange (HLA-A*02:01): ″++″ (≥20% = ++)
Compound: 319 (SLEPQIQPV; listed as Homo sapiens) [compound 319]
- Wells positive [%] (CD8+ T cells): ″+″ (<20% = +)

- Peptide exchange (HLA-A*02:01): ″+++″ (≥50% = +++)
Compound: 283 (ALYIGDGYVIHLA; listed as Homo sapiens) [compound 283]
- wells (CD8+ T cells; HLA class I peptides, positive wells): + (<20% = +)
